Measurements published in patent US4191763A.
Like-named read-outs stand apart in the source and are kept apart here.

Assays:
Xanthomonas vesicatoria = assay: field trial, control of bacterial spot on tomato plants; assay type: in vivo
Procedure: (§1) A mixture of the monoammonium salt of A16886I and the monoammonium salt of A16886II was tested under field conditions for the control of Xanthomonas vesicatoria (bacterial spot) on mature bearing tomato plants. The mixture of the two salts was dispersed in water at a concentration of 100, 200, or 400 parts per million and applied to the plants at the rate of 75 gallons per acre. Application was made with a CO2 sprayer at 50 psi. Plants were sprayed twice, on successive days; after the second spray had dried, all plants were wounded by sand blasting and then within one minute the plants were inoculated with a bacterial inoculum of Xanthomonas vesicatoria. Three days later, a third spray application of the aqueous formulation of A16886 was made. Readings were made one week and two weeks after the last spray treatment. Controls consisted of groups of plants (1) sand blasted and inoculated; (2) sand blasted only; (3) untreated; and (4) treated with streptomycin (on the same three-day spraying schedule, at a concentration of 100, 200, or 400 parts per million of aqueous solution, using a rate of 75 gallons per acre), sand blasted, and inoculated. The results were as set forth in the following table, in which crop injury is reported on a scale of 0-10, with 0=no injury and 10=dead plants; and control of bacterial spot is reported on a percentage basis.

tomato plants = assay: field trial, crop injury; assay type: in vivo; settings: scale 0 (no injury) to 10 (dead plants)
Procedure: as §1

Pseudomonas solanacearum = assay type: in vivo, tomato plants; settings: scale 0 (no control) to 4 (complete control)
[1] = tested on: Ascaris lumbricoides var. suum; assay: anthelmintic activity in mice infected with Ascaris, medicated feed; assay type: in vivo; settings: Example 13, 0.05 percent in diet; control 2.66
Description: The feeds were utilized as diets for separate groups of mice, five mice per group. About twelve hours after initiation of the feeding, the mice were infected with Ascaris lumbricoides var. summ ova. Another group of five mice was fed the non-medicated feed to serve as a control but was similarly infected at the same time with Ascaris lumbricoides var. suum. All groups were fed their respective feed and maintained under normal laboratory conditions for a period of eight days, at which time all mice were taken off feed. On the ninth day, all mice were sacrificed and the lungs examined to determine the presence, and if present, numbers, of lesions of Ascaris lumbricoides var. suum.
Another evaluation was conducted under the procedures reported in Example 11, except that the rates were varied. The results were as follows:
In a further evaluation, the monoammonium salts of A16886I and A16886II were separately evaluated for the control of Ascaris lumbricoides var. suum. The evaluations were conducted in accordance with the procedure reported in Example 11 at a concentration in the diet of 0.05 percent.

[2] = First Reading, 100 parts/million
[3] = First Reading, 200 parts/million
[4] = First Reading, 400 parts/million
[5] = Second Reading, 100 parts/million
[6] = Second Reading, 200 parts/million
[7] = Second Reading, 400 parts/million

Row | Compound | Percent Bacterial Spot Control (Xanthomonas vesicatoria; [2]) [%] | Percent Bacterial Spot Control (Xanthomonas vesicatoria; [3]) [%] | Percent Bacterial Spot Control (Xanthomonas vesicatoria; [4]) [%] | Percent Bacterial Spot Control (Xanthomonas vesicatoria; [5]) [%] | Percent Bacterial Spot Control (Xanthomonas vesicatoria; [6]) [%] | Percent Bacterial Spot Control (Xanthomonas vesicatoria; [7]) [%] | Crop Injury Ratings (tomato plants; [2]) | Crop Injury Ratings (tomato plants; [3]) | Crop Injury Ratings (tomato plants; [4]) | Crop Injury Ratings (tomato plants; [5]) | Crop Injury Ratings (tomato plants; [6]) | Crop Injury Ratings (tomato plants; [7]) | Disease Rating (Pseudomonas solanacearum; Example 7, 10 ppm.) | Disease Rating (Pseudomonas solanacearum; Example 7, 100 ppm.) | Average Number of Lung Lesions Per Group [1] | rating (Pseudomonas solanacearum; Example 8, 100 ppm.) | rating (Pseudomonas solanacearum; Example 8, 200 ppm.) | rating (Pseudomonas solanacearum; Example 8, 400 ppm.)
1 | [H]/N=C(/N)N[C@H]1[C@H](O)[C@@H](O)[C@H](O[C@@H]2O[C@@H](C)[C@](O)(C=O)[C@H]2O[C@@H]2O[C@@H](CO)[C@H](O)[C@@H](O)[C@@H]2NC)[C@@H](N/C(N)=N\[H])[C@@H]1O [Streptomycin] | 83 | 81 | 83 | 57 | 37 | 59 | 0 | 0 | 0 | 0 | 0 | 0 |  |  |  |  |  | 
2 | NC(=O)OCC1=C(C(=O)O)N2C(=O)C(NC(=O)CCCC(N)C(=O)O)[C@H]2SC1 (stereo partly drawn) [7-(5-amino-5-carboxyvaleramido)-3-(carbamoyloxymethyl)-3-cephem-4-carboxylic acid] |  |  |  |  |  |  |  |  |  |  |  |  | 1 | 4 | 0.20 |  |  | 
3 | COC1(NC(=O)CCCC(N)C(=O)O)C(=O)N2C(C(=O)O)=C(COC(N)=O)CS[C@@H]21 (stereo partly drawn) [7-(5-amino-5-carboxyvaleramido)-3-(carbamoyloxymethyl)-7-methoxy-3-cephem-4-carboxylic acid] |  |  |  |  |  |  |  |  |  |  |  |  | 2 | 4 | 0.46 | 4 | 4 | 4
